Results from patent publication US11098040B2, “Compounds and methods of use” (Ferro Therapeutics, Inc., priority 2018, dated 2021).
Where two headings read alike, the source gives them in different places.

Assays:
786-O = assay: Cell proliferation (Alamar Blue) assay, 786-O renal cell carcinoma, with/without ferrostatin; format: cell-based; conditions: Homo sapiens
Description: (§1) Cell viability assay was performed to assess the potency of the compounds in human cancer cell lines 786-O (renal cell carcinoma) and SJSA-1 (osteosarcoma). Additional cell lines, such as those described above in Example 4 as well as various others, e.g., pancreatic cancer cell lines (Panc 02.13, BxPC-3, Panc 12, Panc 02.03, Panc 6.03, PSN-1, HPAC, and Capan-1) and prostate cancer cell lines (PC-3, DU145, 22Rv1, NCI-H660, BPH1, LNCaP, BM-1604, and MDA PCa 2b), were tested for select compounds as shown in Table 25.
(§2) Cells (SJSA-1, 786-O and A431) were seeded (5000 cells/100 μL/well) in 96-well tissue culture plate and incubated at 37° C./5% CO2 for 16-24 hours. The cells were then treated with compounds (25 μL of 5×). The compound concentrations were 10-0.0005 μM prepared in 3-fold serial dilutions with final DMSO concentration of 1%. The plates were then incubated for 24 h at 37° C./5% CO2 in a moist environment. Then Alamar Blue™ reagent (final concentration 1×-12.5 μL) was added to each well and incubated for 1.5 hours at 37° C./5% CO2. The plates were read on fluorescence reader at 540 nm excitation and 590 nm emission wavelengths. The IC50 values were subsequently determined using a sigmoidal dose-response curve (variable slope) in GraphPad Prism® 5 software.
(§3) Studies have shown that lipophilic antioxidants, such as ferrostatin, can rescue cells from GPX4 inhibition-induced ferroptosis. For instance, mesenchymal state GPX4-knockout cells can survive in the presence of ferrostatin, however, when the supply of ferrostatin is terminated, these cells undergo ferroptosis (see, e.g., Viswanathan et al., Nature 547:453-7, 2017). […] Accordingly, the ability of a molecule to induce ferroptotic cancer cell death, and that such ability is admonished by the addition of ferrostatin, is clear indication that the molecule is an GPX4 inhibitor.

SJSA-1 = assay: Cell proliferation (Alamar Blue) assay, SJSA-1 osteosarcoma, with/without ferrostatin; format: cell-based, human; conditions: Homo sapiens
Description: as §1, §2, §3

KP4 = assay: Cell viability assay (CellTiter Glo), pancreatic ductal adenocarcinoma KP4; format: cell-based, human; conditions: Homo sapiens, KP-4, 96 h, pancreatic cancer cell line KP4, 96 hours, CellTiter Glo; read-out: IC50 μM KP4
Method in brief: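 KP4 cells seeded at 1,000–10,000 per well, treated 96 h with 9-point 3-fold dilutions from 30 μM top (4.6 nM–30 μM, duplicates; ≤0.25% DMSO). Viability by CellTiter Glo luminescence; % inhibition relative to DMSO-only wells, giving IC50, relative IC50 or % top inhibition.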

[1] = 786-0, Cell Line 786-O, read-out: IC50
[2] = SJSA-1, Cell Line SJSA-1, read-out: IC50
[3] = 786-0, 24 h, Alamar Blue, 24 h, 2 μM ferrostatin, read-out: 786-O (IC50, μM) 2 μM Ferrostatin
[4] = 786-0, 24 h, Alamar Blue, 24 h, without ferrostatin, read-out: 786-O (IC50, μM) Without Ferrostatin
[5] = SJSA-1, 24 h, Alamar Blue, 24 h, 2 μM ferrostatin, read-out: SJSA-1 (IC50, μM) 2 μM Ferrostatin
[6] = SJSA-1, 24 h, Alamar Blue, 24 h, without ferrostatin, read-out: SJSA-1 (IC50, μM) Without Ferrostatin

## C#CC(=O)N1[C@@H](c2ccc(F)cc2)c2[nH]c3ccc(OC)cc3c2C[C@@H]1C [Compound 282]
786-O; [1]
  IC50: 0.223 µM
SJSA-1; [2]
  IC50: 0.436 µM

## C=C(C(=O)N1[C@@H](c2ccc(N3CCOCC3)cc2)c2[nH]c3ccccc3c2C[C@@H]1C)C(F)(F)F [Compound 175]
786-O; [1]
  IC50: > 10 µM
SJSA-1; [2]
  IC50: > 10 µM

## COC[C@H]1Cc2c([nH]c3ccccc23)C(c2ccc(C(=O)NC3CC3)cc2F)N1C(=O)CCl (stereo partly drawn) [Compound 162, 4-((3R)-2-(2-chloroacetyl)-3-(methoxymethyl)-2,3,4,9-tetrahydro-1H-pyrido[3,4-b]indol-1-yl)-N-cyclopropyl-3-fluorobenzamide]
786-O; [1]
  IC50: 0.06 µM
SJSA-1; [2]
  IC50: 0.085 µM

## C#CC(=O)N1[C@@H](c2ccc(C(=O)NC3CC3)cc2)c2ccc(OC)cc2C[C@@H]1C [Compound 279]
786-O; [1]
  IC50: 0.58 µM
SJSA-1; [2]
  IC50: 1 µM

## CC1CN(c2ccc([C@@H]3c4[nH]c5ccccc5c4C[C@H](C)N3C(=O)CCl)cc2)CCO1 (stereo partly drawn) [Compound 127]
786-O; [1]
  IC50: > 10 µM

## C[C@H]1Cc2c([nH]c3ccccc23)[C@H](c2ccc(S(=O)(=O)NC3CCN(C(=O)OC(C)(C)C)CC3)cc2)N1C(=O)CCl [Compound 293, tert-butyl-4-((4-((1S,3S)-2-(2-chloroacetyl)-3-methyl-2,3,4,9-tetrahydro-1H-pyrido[3,4-b]indol-1-yl)phenyl)sulfonamido)piperidine-1-carboxylate]
786-O; [1]
  IC50: 0.067 µM
SJSA-1; [2]
  IC50: 0.03 µM

## C[C@H]1Cc2c([nH]c3ccccc23)[C@@H](c2ccc(N3CCOCC3)cc2)N1C(=O)CCl [Compound 125, 2-chloro-1-((1R,3S)-3-methyl-1-(4-morpholinophenyl)-1,3,4,9-tetrahydro-2H-pyrido[3,4-b]indol-2-yl)ethan-1-one]
786-O; [1]
  IC50: 2 µM
SJSA-1; [2]
  IC50: 4 µM

## C#CC(=O)N1[C@@H](c2ccc(S(=O)(=O)NC3CC3)cc2F)c2[nH]c3ccc(F)cc3c2C[C@@H]1C [Compound 153, N-cyclopropyl-3-fluoro-4-((1S,3S)-6-fluoro-3-methyl-2-propioloyl-2,3,4,9-tetrahydro-1H-pyrido[3,4-b]indol-1-yl)benzenesulfonamide]
786-O; [1]
  IC50: 0.009 µM
SJSA-1; [2]
  IC50: 0.015 µM

## CC1CN(c2ccc([C@H]3c4[nH]c5ccccc5c4C[C@H](C)N3C(=O)CCl)cc2)CC(C)O1 (stereo partly drawn) [Compound 212]
786-O; [3]
  IC50: 4.96 µM
786-O; [4]
  IC50: 0.008 µM
SJSA-1; [5]
  IC50: 5.03 µM
SJSA-1; [6]
  IC50: 0.011 µM
SJSA-1; [2]
  IC50: 0.011 µM

## Cc1ccc(S(=O)(=O)OCC(=O)N2[C@@H](c3ccc(N4CCOCC4)cc3)c3[nH]c4ccccc4c3C[C@@H]2C)cc1 [Compound 223]
786-O; [1]
  IC50: 0.275 µM

## CCS(=O)(=O)N1CCN(c2ccc([C@H]3c4[nH]c5ccccc5c4C[C@H](C)N3C(=O)CCl)cc2)CC1 [Compound 209]
786-O; [3]
  IC50: > 10 µM
786-O; [4]
  IC50: 0.022 µM
786-O; [1]
  IC50: 0.022 µM
SJSA-1; [5]
  IC50: 8.29 µM
SJSA-1; [6]
  IC50: 0.019 µM

## C[C@H]1Cc2c([nH]c3ccccc23)[C@@H](c2ccc(S(=O)(=O)NC3CC3)cc2F)N1C(=O)CCl (single isomer, unassigned) [Compound 161]
786-O; [1]
  IC50: 2.8 µM
SJSA-1; [2]
  IC50: 4.3 µM

## C[C@H]1Cc2c([nH]c3ccccc23)[C@H](c2ccc(N3CCN(C)CC3)cc2)N1C(=O)OCl [Compound 104]
KP4
  IC50: 0.01 to 0.1 µM
786-O; [1]
  IC50: 0.068 µM

## C#CC(=O)N1[C@@H](c2ccc(N3CCOCC3)cc2)c2[nH]c3ccccc3c2C[C@@H]1C [Compound 231]
786-O; [1]
  IC50: 0.27 µM

## C[C@H]1Cc2c([nH]c3ccccc23)C(c2ccc(S(N)(=O)=O)cc2)N1C(=O)CCl (stereo partly drawn) [Compound 123]
786-O; [1]
  IC50: 2.4 µM

## C[C@H]1Cc2c([nH]c3ccccc23)[C@H](c2ccc(N3CCOCC3)nc2)N1C(=O)CCl [Compound 220]
786-O; [1]
  IC50: 0.098 µM

## C[C@H]1Cc2c([nH]c3ccccc23)[C@@H](c2cnn(C3CCOCC3)c2)N1C(=O)CCl [Compound 159]
786-O; [1]
  IC50: 4.6 µM

## C[C@H]1Cc2c([nH]c3ccccc23)C(c2ccc(N3CCOCC3)nc2)N1C(=O)CCl (stereo partly drawn) [Compound 124]
786-O; [1]
  IC50: 0.245 µM

## C[C@H]1Cc2c([nH]c3ccccc23)[C@H](c2cnn(C3CCOCC3)c2)N1C(=O)CCl [Compound 158]
786-O; [1]
  IC50: 0.591 µM
